The text below walks through data of ChEMBL document CHEMBL1201862, “PubChem BioAssay data set” (2004).

Holding throughout (test): inhibition of tumour cell growth, NCI panel, 48 h
In test [1] the test system is NCI/ADR-RES.
In test [2] the test system is HOP-92.
The subject of test [3] is UO-31.
Test [4] has as its system IGROV-1.
The subject of test [5] is HL-60.
For test [6], the system named is SK-MEL-28.
The test system of test [7] is SW-620.
The subject of test [8] is U-251.
Test [9] relates to MDA-N.
For test [10], the system named is T47D.
Test [11] relates to K562.
Test [12] has as its system HOP-62.
In test [13] the test system is CCRF-CEM.
Test [14] has as its system SF-295.
The subject of test [15] is HT-29.
Test [16] relates to OVCAR-8.
Test [17] relates to SR.
The subject of test [18] is HCT-116.
For test [19], the system named is OVCAR-5.
Test [20] deals with NCI-H460.

Structures are written as SMILES.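 Assay format: 96-well plates, 48-hour exposure. Here, GI50 denotes the concentration required for 50% inhibition of growth.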 Active and inactive are the calls of the source. Cut-off read from the data, not from the text of the source: active = GI50 up to about 1.1 µM and inactive = higher.

`C=C1C(=O)OC2C3OC(C)(CCC(O)C3COC(C)=O)CC(OC(=O)/C(=C/C)COC(C)=O)C12` (stereo not given): the GI50 in test [1] was 0.59 µM (active); in test [2], 0.159 µM (active); in [3], 0.398 µM (active); in test [4], 0.738 µM (active); in test [5] it was 0.0248 µM (active); in [6], 0.116 µM (active). Besides, the GI50 is 0.0807 µM (active) in test [7]; 1.22 µM (inactive) in test [8]; 0.155 µM (active) in [9]; 0.142 µM (active) in [10]; 0.0775 µM (active) in test [11]; 3.08 µM (inactive) in test [12]. The GI50 in test [13] is 0.0176 µM (active); in test [14], 9.12 µM (inactive); in test [15] it was 0.154 µM (active); in [16], 0.532 µM (active); in test [17] it was 0.196 µM (active); in test [18], 0.0796 µM (active). In addition, the GI50 in test [19] was 0.586 µM (active); in test [20] it was 0.752 µM (active).

As for `COCn1c(C)c(C)c2c(=O)oc(=O)[nH]c21`, the GI50 in test [1] is > 100 µM (inactive); in test [2] it was > 100 µM (inactive); in test [3], > 100 µM (inactive); in test [4], > 100 µM (inactive); in test [5], 54.8 µM (inactive); in test [6], > 100 µM (inactive). Also, the GI50 in test [7], in test [8], in test [9], in test [10], in test [11] and in [12] was > 100 µM (inactive) each time. Moreover, the GI50 in [13], in [14], in test [15], in test [16], in test [17] and in test [18] was > 100 µM (inactive) each time. For the same molecule, the GI50 in [19] and in test [20] was > 100 µM (inactive) each time.

As to `CCCCC1(N=[N+]=[N-])C(=O)C2C=CC=C3c4ccccc4N(C1=O)C32` (stereo not given), the GI50 in [1] is 17.7 µM (inactive); in test [2], > 10 µM (inactive); in test [3] it was 18.8 µM (inactive); in [4], 11.3 µM (inactive); in [5] it was 34 µM (inactive); in test [6], 78.2 µM (inactive). The GI50 was 20.2 µM (inactive) in [7]; 18.7 µM (inactive) in [8]; 15.7 µM (inactive) in test [9]; 14.1 µM (inactive) in test [10]; 17.3 µM (inactive) in [11]; 27.1 µM (inactive) in test [12]. In addition, the GI50 in [13] is 18.5 µM (inactive); in [14] it was 24.7 µM (inactive); in test [15], 14.1 µM (inactive); in [16] it was 20.1 µM (inactive); in test [17], > 10 µM (inactive); in [18], 18.1 µM (inactive). The GI50 in test [19] was 19.8 µM (inactive); in test [20], 17.2 µM (inactive).

As to `CN(CCC(=O)O)S(=O)(=O)c1ccccc1`, the GI50 in test [1], in [2], in [3], in test [4], in test [5] and in test [6] was > 100 µM (inactive) in each case. The GI50 in test [7], in [8], in [9], in [10], in test [11] and in test [12] was > 100 µM (inactive) in each case. Also, the GI50 in [13], in test [14], in test [15], in [16], in test [17] and in test [18] was > 100 µM (inactive) throughout. In addition, the GI50 in test [19] and in test [20] was > 100 µM (inactive) in each case.

As for `O=c1c2ccccc2[nH]n1Cc1ccccc1`, the GI50 in [1], in test [2], in test [3], in test [4], in [5] and in test [6] was > 100 µM (inactive) in each case. Moreover, the GI50 in test [7], in test [8], in [9], in test [10], in test [11] and in test [12] was > 100 µM (inactive) throughout. The GI50 in [13], in [14], in test [15], in [16], in test [17] and in test [18] was > 100 µM (inactive) in each case. The GI50 in test [19] and in test [20] was > 100 µM (inactive) each time.

In the case of `CCOC(=O)c1nc2c(nc1C(=O)OCC)C(=O)c1ccccc1C2=O`, the GI50 was 1.17 µM (inactive) in test [1]; 5.36 µM (inactive) in test [2]; 0.333 µM (active) in test [3]; 2.75 µM (inactive) in test [4]; 0.427 µM (active) in test [5]; 1.03 µM (active) in test [6]. Also, the GI50 is 0.881 µM (active) in test [7]; 0.703 µM (active) in test [8]; 0.248 µM (active) in [9]; 3.85 µM (inactive) in test [10]; 0.348 µM (active) in test [11]; 0.618 µM (active) in test [12]. The GI50 is 0.601 µM (active) in test [13]; 0.359 µM (active) in test [14]; 2.5 µM (inactive) in test [15]; 1.05 µM (active) in [16]; 0.263 µM (active) in test [17]; 0.875 µM (active) in [18]. For the same molecule, the GI50 was 0.562 µM (active) in [19] and 1.59 µM (inactive) in test [20].

Turning to `CCCCC(C(=O)NCCNC(=O)CCC(=O)N(C)O)C(=O)NCCNC(=O)CCC(=O)N(C)O`, the GI50 in test [1], in test [2], in test [3], in [4], in test [5] and in test [6] was > 100 µM (inactive) throughout. Besides, the GI50 in test [7], in test [8], in [9], in test [10], in [11] and in [12] was > 100 µM (inactive) each time. Moreover, the GI50 in test [13], in test [14], in test [15], in [16], in [17] and in test [18] was > 100 µM (inactive) in each case. The GI50 in [19] and in [20] was > 100 µM (inactive) in each case.

For the molecule `OC1CC(O)c2c(Cl)sc(Cl)c21` (stereo not given), the GI50 in test [1] is 43.6 µM (inactive); in [2] it was 23.4 µM (inactive); in test [3], 28.2 µM (inactive); in [4], > 100 µM (inactive); in [5], 30.5 µM (inactive); in test [6], 29.9 µM (inactive). Besides, the GI50 in [7] was 44.2 µM (inactive); in [8], 15.5 µM (inactive); in test [9], > 100 µM (inactive); in test [10], 26.9 µM (inactive); in test [11], 62.8 µM (inactive); in test [12], 21.2 µM (inactive). Also, the GI50 in test [13] is 46.1 µM (inactive); in test [14], 8.41 µM (inactive); in [15] it was 17.5 µM (inactive); in [16], 41.5 µM (inactive); in test [17] it was > 100 µM (inactive); in test [18], 31.4 µM (inactive). Further, the GI50 in test [19] was 28.8 µM (inactive); in test [20], 21.8 µM (inactive).

For `O=C(OCc1ccccc1)N1CCNCCNCC1`, the GI50 in test [1], in [2], in test [3], in test [4], in [5] and in test [6] was > 100 µM (inactive) in each case. Further, the GI50 in [7], in test [8], in test [9], in test [10], in [11] and in [12] was > 100 µM (inactive) in each case. Further, the GI50 in test [13], in test [14], in test [15], in test [16], in test [17] and in test [18] was > 100 µM (inactive) in each case. Moreover, the GI50 in test [19] and in test [20] was > 100 µM (inactive) throughout.

On to `NC1C2C(CC(=O)O)OCC=C3CN4CCC1(C(=O)C(=O)O)C4CC32` (stereo not given), for which the GI50 in test [1], in test [2], in test [3], in test [4], in [5] and in test [6] was > 100 µM (inactive) each time. The GI50 in [7], in test [8], in test [9], in test [10], in [11] and in [12] was > 100 µM (inactive) in each case. The GI50 in test [13], in test [14], in test [15], in test [16], in [17] and in test [18] was > 100 µM (inactive) throughout. Further, the GI50 in [19] and in [20] was > 100 µM (inactive) throughout.
